The compounds below were run against T1, Cdc7 (BEV coexpressed huCDC7/DBF4) (Homo sapiens, UniProt O00311) (assay: Cdc7 enzyme inhibition assay ([33P]-ATP, biotinylated peptide substrate, FlashPlate)). Conditions: Table 2; same assay as example 26.
T1 construct: made in house; host or cells: baculovirus expression vector (BEV) system
Assay type: biochemical
Description: Cdc7 (BEV coexpressed huCDC7/DBF4) is prepared internally. Cdc7 assays are conducted as follows with final concentrations as listed. In 384-well v-bottom polypropylene plates, 6 L compound (2% DMSO), is mixed with 6 µL of Cdc7 (2 μg/mL), and Jerini peptide substrate A-All (biotin-C6linker-TPSDSLIYDDGLS) (2 μM), followed by immediate initiation with 6 L […] (1 μM, 20 mCi/μmol) using a reaction buffer comprising 25 mM HEPES, pH 7.5, 1 mM DTT, 10 mM MgCl2, 100 μM Na3VO4, 0.075 mg/ml Triton X-100. Reactions are quenched after 1 hr by the addition of 90 L stop buffer (50 mM EDTA, 2M NaCl). 85 μL of the stopped reactions are transferred to 384-well streptavidin-coated plates (FlashPlate Plus, Perkin Elmer), incubated 30 minutes at room temperature and washed 3 times with 0.05% Tween-20/PBS using an ELX-405 automated plate washer (BioTek), and counted on a TopCount Scintillation Plate Reader (Packard). IC50 values are determined via non-linear regression fitting of enzyme inhibition data and corresponding Ki values are generated assuming ATP-competitive (equilibrium) inhibition and using the experimentally determined apparent ATP Km of 0.7 μM (as determined using the above assay condition, but varying ATP). Table 1 depicts enzyme inhibition data (Ki) for exemplary compounds. In Table 1, “A” represents a Ki of less than 10 nM, “B” represents a Ki of between 10 nM and 100 nM, and “C” represents a Ki of greater than 100 nM.
Table 2 depicts enzyme inhibition data (Ki) for examples 27-43 using the same assay as example 26. In Table 2, “A” represents a Ki of less than 10 nM, “B” represents a Ki of between 10 nM and 100 nM, and “C” represents a Ki of greater than 100 nM.

T1 sequence (O00311 whole entry): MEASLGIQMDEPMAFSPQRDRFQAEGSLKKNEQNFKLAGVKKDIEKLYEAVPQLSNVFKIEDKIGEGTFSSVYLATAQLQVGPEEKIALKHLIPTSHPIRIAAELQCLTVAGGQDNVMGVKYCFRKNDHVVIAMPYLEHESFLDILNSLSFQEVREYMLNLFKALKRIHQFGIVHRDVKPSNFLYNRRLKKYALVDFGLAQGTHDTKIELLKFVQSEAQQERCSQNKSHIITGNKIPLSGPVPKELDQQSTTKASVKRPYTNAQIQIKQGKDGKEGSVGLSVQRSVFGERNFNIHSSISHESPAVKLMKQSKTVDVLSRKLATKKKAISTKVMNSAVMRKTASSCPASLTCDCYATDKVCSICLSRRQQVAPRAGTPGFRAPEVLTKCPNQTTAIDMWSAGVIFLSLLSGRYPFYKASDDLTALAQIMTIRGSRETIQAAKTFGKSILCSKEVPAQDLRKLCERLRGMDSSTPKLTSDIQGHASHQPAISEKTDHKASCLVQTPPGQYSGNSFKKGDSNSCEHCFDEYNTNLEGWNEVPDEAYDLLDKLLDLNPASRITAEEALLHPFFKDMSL
T1 sequence (Q9UBU7 whole entry partner): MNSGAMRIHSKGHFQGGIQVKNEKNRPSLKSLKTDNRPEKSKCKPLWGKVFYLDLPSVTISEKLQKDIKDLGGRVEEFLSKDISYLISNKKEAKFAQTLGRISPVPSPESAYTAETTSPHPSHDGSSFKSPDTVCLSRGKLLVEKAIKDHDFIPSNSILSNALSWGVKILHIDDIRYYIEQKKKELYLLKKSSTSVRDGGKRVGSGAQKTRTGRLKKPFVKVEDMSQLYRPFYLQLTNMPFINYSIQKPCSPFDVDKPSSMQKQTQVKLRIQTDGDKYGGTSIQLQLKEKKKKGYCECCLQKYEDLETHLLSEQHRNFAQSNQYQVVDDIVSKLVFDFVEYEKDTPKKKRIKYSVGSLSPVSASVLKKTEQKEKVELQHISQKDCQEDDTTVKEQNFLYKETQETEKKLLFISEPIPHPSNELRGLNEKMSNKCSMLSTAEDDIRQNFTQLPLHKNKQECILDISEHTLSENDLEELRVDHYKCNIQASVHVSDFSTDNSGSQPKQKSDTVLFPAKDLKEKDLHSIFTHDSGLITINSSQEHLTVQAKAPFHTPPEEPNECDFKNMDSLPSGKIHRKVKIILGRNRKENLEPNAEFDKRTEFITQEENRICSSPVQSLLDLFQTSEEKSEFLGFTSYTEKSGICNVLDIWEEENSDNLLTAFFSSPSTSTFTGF

**Q.** Which Ki does the source give for O=C(N[C@H]1CC[C@H](Nc2cc(-c3c[nH]c4nccnc34)cc(Cl)n2)CC1)[C@@H]1CCN1 [Example 30, (2S)—N-(trans-4-{[6-chloro-4-(5H-pyrrolo[2,3-b]pyrazin-7-yl)pyridin-2-yl]amino}cyclohexyl)azetidine-2-carboxamide] here?
**A.** The Ki was under 10 nM.

**Q.** How did the Ki turn out when O=C1CC(C(=O)N[C@H]2CC[C@H](Nc3cc(-c4c[nH]c5nccnc45)cc(Cl)n3)CC2)CC(=O)N1 [Example 31, N-(trans-4-{[6-chloro-4-(5H-pyrrolo[2,3-b]pyrazin-7-yl)pyridin-2-yl]amino}cyclohexyl)-2,6-dioxopiperidine-4-carboxamide] was run?
**A.** Its Ki is under 10 nM.

**Q.** For O[C@H]1CC[C@H](Nc2cc(-c3c[nH]c4ncc(Cl)nc34)cc(Cl)n2)CC1 [Example 33, trans 4-{[6-chloro-4-(2-chloro-5H-pyrrolo[2,3-b]pyrazin-7-yl)pyridin-2-yl]amino}cyclohexanol], which Ki is on record?
**A.** Its Ki is under 10 nM.

**Q.** With O[C@H]1CC[C@H](Nc2cc(-c3c[nH]c4ncc(Br)nc34)cc(Cl)n2)CC1 [Example 34, trans 4-{[4-(2-bromo-5H-pyrrolo[2,3-b]pyrazin-7-yl)-6-chloropyridin-2-yl]amino}cyclohexanol] as the compound, how does the Ki read?
**A.** The Ki was under 10 nM.

**Q.** Clc1cc(-c2c[nH]c3ncc(Cl)nc23)cc(NC2CCCCC2)n1 [Example 35, 6-chloro-4-(2-chloro-5H-pyrrolo[2,3-b]pyrazin-7-yl)-N-cyclohexylpyridin-2-amine] was tested. Which Ki did it give?
**A.** The Ki was under 10 nM.

**Q.** With O=C(O)c1cnc2[nH]cc(-c3cc(Cl)nc(NC4CCCCC4)c3)c2n1 [Example 36, 7-[2-chloro-6-(cyclohexylamino)pyridin-4-yl]-5H-pyrrolo[2,3-b]pyrazine-2-carboxylic acid] as the compound, how does the Ki read?
**A.** The Ki was under 10 nM.

**Q.** N#Cc1cnc2[nH]cc(-c3cc(Cl)nc(NC4CCCCC4)c3)c2n1 [Example 37, 7-[2-chloro-6-(cyclohexylamino)pyridin-4-yl]-5H-pyrrolo[2,3-b]pyrazine-2-carbonitrile] was tested. Which Ki did it give?
**A.** The Ki was under 10 nM.

**Q.** Which Ki does the source give for Clc1cc(-c2c[nH]c3ncc(-c4ccccc4)nc23)cc(NC2CCCCC2)n1 [Example 38, 6-chloro-N-cyclohexyl-4-(2-phenyl-5H-pyrrolo[2,3-b]pyrazin-7-yl)pyridin-2-amine] here?
**A.** Its Ki is 10 to 100 nM.

**Q.** Clc1cc(-c2c[nH]c3ncc(Nc4ccccc4)nc23)cc(NC2CCCCC2)n1 [Example 39, 7-[2-chloro-6-(cyclohexylamino)pyridin-4-yl]-N-phenyl-5H-pyrrolo[2,3-b]pyrazin-2-amine] was tested. Which Ki did it give?
**A.** The Ki was 10 to 100 nM.

**Q.** How did the Ki turn out when Clc1cc(-c2c[nH]c3ncc(NCCCc4ccccc4)nc23)cc(NC2CCCCC2)n1 [Example 40, 7-[2-chloro-6-(cyclohexylamino)pyridin-4-yl]-N-(3-phenylpropyl)-5H-pyrrolo[2,3-b]pyrazin-2-amine] was run?
**A.** The Ki was 10 to 100 nM.

**Q.** How did the Ki turn out when Clc1cc(-c2c[nH]c3ncc(-c4cnccn4)nc23)cc(NC2CCCCC2)n1 [Example 41, 6-chloro-N-cyclohexyl-4-[2-(pyrazin-2-yl)-5H-pyrrolo[2,3-b]pyrazin-7-yl]pyridin-2-amine] was run?
**A.** Its Ki is under 10 nM.

**Q.** With COc1cc(N2CCC(N3CCN(C)CC3)CC2)ccc1Nc1cnc2[nH]cc(-c3cc(Cl)nc(NC4CCCCC4)c3)c2n1 [Example 42, 7-[2-chloro-6-(cyclohexylamino)pyridin-4-yl]-N-{2-methoxy-4-[4-(4-methylpiperazin-1-yl)piperidin-1-yl]phenyl}-5H-pyrrolo[2,3-b]pyrazin-2-amine] as the compound, how does the Ki read?
**A.** Its Ki is under 10 nM.

**Q.** With Clc1cc(-c2c[nH]c3ncc(/C=C/c4ccncc4)nc23)cc(NC2CCCCC2)n1 [Example 43, 6-chloro-N-cyclohexyl-4-{2-[(E)-2-(pyridin-4-yl)ethenyl]-5H-pyrrolo[2,3-b]pyrazin-7-yl}pyridin-2-amine] as the compound, how does the Ki read?
**A.** The Ki was under 10 nM.
